Data: patent US20230000753A1, “Encapsulated Cleansing Composition” (Henkel AG & Co. KGaA, priority 2020, published 2023)

Test system: skin
Experiment: 5 day cumulative irritation patch study
Assay type: in vivo
Procedure: To evaluate the skin irritation potential of cleansing products, a 5 day cumulative irritation patch study was conducted. Cumulative irritancy patch testing is a modified primary irritancy patch test that can detect weak irritants that require multiple applications to cause a skin reaction. These reactions are due to direct damage to the epidermal cells and no immunologic (allergic) mechanism is involved. The procedure used in the Examples is a modification of that described by Dr. B. M. Lanman at the Joint Conference on Cosmetic Sciences, Apr.

CCCCCCCCCCCCOS(=O)(=O)[O-].[Na+] [0.25% SLS, sodium lauryl sulfate]
Irritancy Class: Moderately | Normalized Total Score: 290.2
